Counter-ions that a name gives are not always drawn.
Columns and labels:
[1] = test system: Lectin Pathway; assay: Lectin Pathway Activation Assay in Human Serum (mannan-coated ELISA, C3c detection); type: biochemical; conditions: 1% human serum
Experimental: Microtiter ELISA plate was coated with mannan from Saccharomyces cerevisiae (Sigma-Aldrich, M7504) for overnight at 4° C. in coating buffer [15 mM Na2CO3, 35 mM NaHCO3].

[2] = target: MASP-2 (CCP1-CCP2-SP) (Homo sapiens (Human), UniProt O00187); assay: Enzymatic Assay for MASP-2 (fluorogenic substrate); type: biochemical
Sequence of MASP-2 (CCP1-CCP2-SP) (O00187 445-686): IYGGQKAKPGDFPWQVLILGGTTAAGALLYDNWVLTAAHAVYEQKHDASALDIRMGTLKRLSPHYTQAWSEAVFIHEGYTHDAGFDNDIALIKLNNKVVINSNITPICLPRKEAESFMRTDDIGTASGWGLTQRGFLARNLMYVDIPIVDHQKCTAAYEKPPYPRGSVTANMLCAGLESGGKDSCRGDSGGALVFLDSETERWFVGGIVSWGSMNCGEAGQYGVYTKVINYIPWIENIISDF

| Structure (SMILES) | IC50 [1] [nM] | further results |
| --- | --- | --- |
| C[C@H](NC(=O)[C@H]1C[C@@H](c2ccccc2)CCN1)C(=O)NCc1ccc(C(=N)N)cc1 [compound 1230, (2R,4S)—N—((S)-1-((4-Carbamimidoylbenzyl)amino)-1-oxopropan-2-yl)-4-phenylpiperidine-2-carboxamide Dihydrochloride] | < 50 | – |
| C[C@H](NC(=O)[C@H]1C[C@H](Cc2ccc(-c3ccccc3)cc2)CN1)C(=O)NCc1cnc2[nH]cc(Cl)c2c1 [compound 1356, (2R,4S)-4-([1,1′-Biphenyl]-4-ylmethyl)-N—((S)-1-(((3-chloro-1H-pyrrolo[2,3-b]pyridin-5-yl)methyl)amino)-1-oxopropan-2-yl)pyrrolidine-2-carboxamide] | 50 to 500 | – |
| Cc1cccc(CNC(=O)[C@H](C)NC(=O)[C@H]2C[C@H](Cc3ccccc3)CN2)c1-n1ncnn1 [compound 1437, (2R,4S)-4-Benzyl-N—((S)-1-((3-methyl-2-(2H-tetrazol-2-yl)benzyl)amino)-1-oxopropan-2-yl)pyrrolidine-2-carboxamide] | – | Ki [2]: 500 to 2500 nM |
| N=C(N)c1ccc2[nH]c(Cc3ccccn3)nc2c1 [compound 2002, 2-(Pyridin-2-ylmethyl)-1H-benzo[d]imidazole-5-carboximidamide Dihydrochloride] | – | MASP-2 versus thrombin selectivity ([2]; +Zn): ++ (+Zn) (5.0 to 25-fold) |
